Data as given in patent US20050215490A1, “Polyene polyketides and methods of treating bacterial infections” (Ecopia BioSciences, Inc., priority 2003, published 2005).
In brackets after ≈: the same amount, converted by molar mass. Where two headings read alike, the source gives them in different places.

Experiments:
[1] = tested on: Bacillus megaterium (ATCC™ 14581); assay: MIC, broth microdilution (NCCLS M7-A5); format: cell-based; conditions: Priestia megaterium, ATCC14581; B. megaterium ATCC 14581; Mueller-Hinton; 35° C., 18 hours; read-out: MIC
Protocol: (§1) Antibacterial activity of Compounds 1 and 2 (Table 4) was measured by determining the minimal inhibitory concentration (MIC) necessary to obtain a complete inhibition of bacteria growth in eight indicator strains, namely Staphylococcus aureus (ATCC™ 6538P), Staphylococcus aureus MRS3 (ATCC™ 700699), Staphylococcus epidermidis (ATCC™ 12228), Bacillus subtilis (ATCC™ 23857), Bacillus megaterium (ATCC™ 14581), Enterococcus faecalis VRE-1 (ATCC™ 29212), Enterococcus faecalis VRE-2 (ATCC™ 51299) and Micrococcus luteus (ATCC™ 9341). Indicator strains preparation and MIC determination were performed according to the National Committee for Clinical Laboratory Standards (NCCLS) guideline M7-A5 Methods for Dilution Antimicrobial Susceptibility Tests for Bacteria That Grow Aerobically; Approved Standard-Fifth Edition. (NCCLS document M7-A5, ISBN 1-56238-394-9; NCCLS, 940 West Valley Road, Suite 1400, Wayne, Pa. 19087-1898 USA), the content of which is incorporated herein by reference.
(§2) Compounds 1 and 2 were prepared as 100× stock solution in DMSO, with concentrations ranging from 3.2 mg/ml to 0.00625 mg/ml (a two-fold dilution series over […]). An aliquot of each 100× stock solution was diluted 50-fold in test medium described below to give a set of ten (10) 2× solutions ranging from 64 to 0.125 μg/mL. 50 μl of each of the ten 2× solutions was aliquoted into the corresponding well of a 12-well row, with the final well reserved for medium alone control. Each test was made in duplicate.
(§3) Vancomycin (Sigma™) used as positive control compounds, was prepared as 2× stock solutions in sterile, double-distilled water (ddH2O) ranging from 64 μg/ml to […] (a two-fold dilution series over 10 points). An aliquot of 50 μl corresponding to each concentration (at 2×) was then transferred to 96-well microplates to obtain a series of eleven two-fold dilutions.
(§4) An isolated colony of each of the eight indicator strains was used to inoculate tubes containing 3 ml of test medium. Mueller-Hinton test medium was used for Staphylococcus aureus (ATCC™ 6538P), Staphylococcus aureus MRS3 (ATCC™ 700699), Staphylococcus epidermidis (ATCC™ 12228), Bacillus subtilis (ATCC™ 23857), Bacillus megaterium (ATCC™ 14581) and Micrococcus luteus (ATCC™ 9341) indicator strains, and BHI (Brain-Heart Infusion broth) test medium was used for Enterococcus faecalis VRE-1 (ATCC™ 29212) and Enterococcus faecalis VRE-2 (ATCC™ 51299) indicator strains. Cells were grown overnight at 28° C. with shaking. Inoculum density for each indicator strain was adjusted to OD600=0.1 in 5 ml 0.85% saline, then further diluted 1/100 in appropriate medium. 50 μl of the final dilution (in test medium) of each indicator strain was added to each well of a 12-well row. This brings the final dilution of the test article or control compound in solution to 1×. The final inoculum is approximately 5×10^5 CFU/ml.
(§5) The indicator strains were incubated with 11 concentrations of each of Compounds 1 and 2, Vancomycin (Sigma™) control compound and one media alone control. For MIC determination, assay plates were incubated at 35° C. for 18 hours.

[2] = tested on: Bacillus subtilis (ATCC™ 23857); assay: MIC, broth microdilution (NCCLS M7-A5); format: cell-based; conditions: ATCC23857, B. subtilis ATCC 23857, Mueller-Hinton, 35° C., 18 hours, read-out: MIC
Protocol: as §1, §2, §3, §4, §5

[3] = tested on: Enterococcus faecalis VRE-1 (ATCC™ 29212); assay: MIC, broth microdilution (NCCLS M7-A5); format: cell-based; conditions: E. faecalis ATCC 29212, BHI, 35° C., 18 hours, read-out: MIC
Protocol: as §1, §2, §3, §4, §5

[4] = tested on: Enterococcus faecalis VRE-2 (ATCC™ 51299); assay: MIC, broth microdilution (NCCLS M7-A5); format: cell-based; conditions: E. faecalis ATCC 51299, BHI, 35° C., 18 hours, read-out: MIC
Protocol: as §1, §2, §3, §4, §5

[5] = tested on: Micrococcus luteus (ATCC™ 9341); assay: MIC, broth microdilution (NCCLS M7-A5); format: cell-based; conditions: ATCC9341, M. luteus ATCC 9341, Mueller-Hinton, 35° C., 18 hours, read-out: MIC
Protocol: as §1, §2, §3, §4, §5

[6] = tested on: Staphylococcus aureus (ATCC™ 6538P); assay: MIC, broth microdilution (NCCLS M7-A5); format: cell-based; conditions: read-out: MIC
Protocol: as §1, §2, §3, §4, §5

[7] = tested on: Staphylococcus aureus MRS3 (ATCC™ 700699); assay: MIC, broth microdilution (NCCLS M7-A5); format: cell-based; conditions: read-out: MIC
Protocol: as §1, §2, §3, §4, §5

[8] = tested on: Staphylococcus epidermidis (ATCC™ 12228); assay: MIC, broth microdilution (NCCLS M7-A5); format: cell-based; conditions: read-out: MIC
Protocol: as §1, §2, §3, §4, §5

[9] = tested on: CD-1 female mice; assay: in vivo; conditions: CD-1, mouse
Protocol: A. Toxicity: Acute toxicities were determined using CD-1 female mice (supplied by Charles River Laboratories, Wilmington, Mass.) having a bodyweight of 18-25 g, and about 6 weeks of age. Compounds 1 and 2 at doses ranging from 1 to 70 mg/kg (formulated in 20% propylene glycol/water for a total volume of 10 μL/g of weight) were administered intraperitoneal (i.p.) and intravenous (i.v.) to groups of 5 mice (5 mice per concentration, per mode of administration). Two groups of 3 mice were injected with vehicle only. Mice were observed immediately after injection, within 4 hours and once a day for the subsequent days. Acute toxicity studies of Compound 1 in mice indicated no observable effect and high dose tolerability: 70 mg/kg intraperitoneal and 50 mg/kg intravenous (an MTD of 250 mg/kg was also determined by oral administration). […] In vitro Haemolytic activity results are also shown in Table 7, along with the in vivo toxicity and efficacy of Compound 1.

[10] = ATCC6538P, S. aureus ATCC 6538P, Mueller-Hinton, 35° C., 18 hours
[11] = ATCC700699, S. aureus ATCC 700699, Mueller-Hinton, 35° C., 18 hours
[12] = ATCC12228, S. epidermidis ATCC 12228, Mueller-Hinton, 35° C., 18 hours

SMILES: CC(=CC=CC=CC=CC=CC(C)C(OC1OC(C(=O)O)C(O)C(O)C1O)C(C)=CC(C)CCCC=CC(C)CC=CCCCN(C)C(=N)N)C(=O)NC1=C(O)CCC1=O (stereo not shown) [Compound 1, 3,4,5-trihydroxy-6-[1-[11-(2-hydroxy-5-oxocyclopent-1-enylcarbamoyl)-1-methyldodeca-2,4,6,8,10-pentaenyl]-2,4,10-trimethyl-16-(N-methyl-guanidino)-hexadeca-2,8,12-trienyloxy]-tetrahydropyran-2-carboxylic acid]
- MIC [1]: 1 µg/mL (≈ 1.19 µM)
- MIC [2]: 1 µg/mL (≈ 1.19 µM)
- MIC [3]: 8 to 16 µg/mL (≈ 9.56 to 19.1 µM)
- MIC [4]: 16 µg/mL (≈ 19.1 µM)
- MIC [5]: 4 µg/mL (≈ 4.78 µM)
- MIC [6, 10]: 2 µg/mL (≈ 2.39 µM)
- MIC ([6]; Table 6, S. aureus MSSA): 2 µg/mL (≈ 2.39 µM)
- MIC [7, 11]: 4 µg/mL (≈ 4.78 µM)
- MIC ([7]; Table 6, S. aureus MRSA-hVISA): 4 µg/mL (≈ 4.78 µM)
- MIC [8, 12]: 4 µg/mL (≈ 4.78 µM)
- MIC ([8]; Table 6, S. epidermidis): 4 µg/mL (≈ 4.78 µM)
- Acute toxicity: dose with no observable effect (high dose tolerability) ([9]; ip): 70 mg/kg
- Acute toxicity: dose with no observable effect (high dose tolerability) ([9]; iv): 50 mg/kg

SMILES: C\C(=C/C=C/C=C/C=C/C=C/C(C)C(OC1OC(C(=O)O)C(O)C(O)C1O)/C(C)=C/C(C)CCC/C=C/C(C)C/C=C/CCCNC(=N)N)C(=O)NC1=C(O)CCC1=O (stereo not shown) [Compound 2, 6-{16-guanidino-1-[11-(2-hydroxy-5-oxocyclopent-1-enylcarbamoyl)-1-methyldodeca-2,4,6,8,10-pentaenyl]-2,4,10-trimethylhexadeca-2,8,12-trienyloxy}-3,4,5-trihydroxy-tetrahydro-pyran-2-carboxylic acid]
- MIC [1]: 1 µg/mL (≈ 1.22 µM)
- MIC [2]: 2 µg/mL (≈ 2.43 µM)
- MIC [3]: 16 µg/mL (≈ 19.4 µM)
- MIC [4]: 16 µg/mL (≈ 19.4 µM)
- MIC [5]: 1 to 2 µg/mL (≈ 1.22 to 2.43 µM)
- MIC [6, 10]: 1 µg/mL (≈ 1.22 µM)
- MIC ([6]; Table 6, S. aureus MSSA): 1 µg/mL (≈ 1.22 µM)
- MIC [7, 11]: 1 µg/mL (≈ 1.22 µM)
- MIC ([7]; Table 6, S. aureus MRSA-hVISA): 1 µg/mL (≈ 1.22 µM)
- MIC [8, 12]: 1 µg/mL (≈ 1.22 µM)
- MIC ([8]; Table 6, S. epidermidis): 1 µg/mL (≈ 1.22 µM)
- Acute toxicity: dose with no observable effect (high dose tolerability) ([9]; iv): 25 mg/kg
